# Patent US20090246292A1, “ANTIMICROBIAL FORMULATIONS COMPRISING A QUINONE AND A COPPER SALT” (priority 2006, published 2009)
# Read-outs that look alike come from different tables or passages of the source.
# How the values were obtained:
# [1] = system: P. acnes NCTC 737; test: Synergy disc diffusion assay (SDDA), also supplemented
# [2] = system: P. acnes NCTC 737; test: Disc diffusion assay (DDA), also supplemented;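 also: paper disc carrying compound placed on inoculated Wilkins-Chalgren Anaerobe agar pH 6.0, with lipid or NaCl supplement where listed, anaerobic 37 °C for 72 h, inhibition zone diameter read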
# Procedure: The propionibacteria were cultured and maintained on Wilkins-Chalgren Anaerobe Medium (agar and broth) at pH 6.0; all cultures were incubated anaerobically at 37° C. for 72 hours.
# (d) Disc Diffusion Assay (DDA)
# (§6) A sterile paper disc was impregnated with a sample of the test compound in a suitable solvent and 30 minutes allowed for the solvents to evaporate (where possible). The disc was then placed on an agar plate onto which the test micro-organism had been inoculated. The plate was then incubated under the conditions described above, following which it was examined visually for signs of bacterial growth. […] The diameter of this zone of “inhibition” was measured using a ProtoCOL™ automated zone sizer (Synbiosis, Cambridge, UK).
# (f) Supplemented Disc Diffusion Assays
# For assays using Propionibacterium spp. strains the supplements used in the examples below were lipid (either Tween™ 80 or triolein, both at 1% v/v) and sodium chloride (100 mM).
# [3] = system: S. aureus ATCC 29213; test: Disc diffusion assay (DDA), also supplemented
# Procedure: The staphylococci were cultured and maintained on Mueller-Hinton Medium (agar and broth) at pH 7.2; cultures were incubated aerobically at 37° C. for 19-20 hours.
# (d) Disc Diffusion Assay (DDA)
# as §6
# (f) Supplemented Disc Diffusion Assays
# For assays using S. aureus ATCC 29213 the supplements used were sodium chloride (100 mM), lipid (Tween™ 80 at 1% v/v) and horse serum (5% v/v).
# [4] = system: S. aureus ATCC 29213; test: Synergy disc diffusion assay (SDDA), also supplemented;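 also: disc diffusion on Mueller-Hinton agar at pH 7.2, aerobic incubation at 37 °C lasting 19-20 h, two compounds assessed jointly for combined antimicrobial effect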
# [5] = system: P. acnes NCTC 737; test: Minimum bactericidal concentration (MBC) assay; format: cell-based, Propionibacterium acnes
# Procedure: (§1) (b) Minimum Bactericidal Concentration (MBC) Assay
# (§2) Following incubation they were examined visually for bacterial growth.
# [6] = system: S. aureus ATCC 29213; test: Minimum bactericidal concentration (MBC) assay; format: cell-based, Staphylococcus aureus
# Procedure: as §1, §2
# [7] = system: S. aureus ATCC 29213; test: Minimum inhibitory concentration (MIC) assay; format: cell-based, Staphylococcus aureus
# Excerpt: (§3) (a) Minimum Inhibitory Concentration (MIC) Assay
# (§4) The culture media were as described above.
# (§5) The assays included both negative (culture medium with no micro-organisms) and positive (culture medium plus diluting solvent plus micro-organism) controls.
# [8] = system: P. acnes NCTC 737; test: Minimum inhibitory concentration (MIC) assay; format: cell-based, Propionibacterium acnes
# Excerpt: as §3, §4, §5
# [9] = quinone + CSL, salt and lipid (1% (v/v) triolein)
# [10] = quinone + CSPH, salt and lipid (1% (v/v) triolein)
# [11] = Example 8, single compound, salt and 1% (v/v) triolein
# [12] = Example 9, single compound, salt and serum
# [13] = quinone + CSL, salt and serum supplements
# [14] = quinone + CSPH, salt and serum supplements
# [15] = copper salt alone, 200 μg per disc (silicate 62 μg), sodium chloride (100 mM)
# [16] = copper salt alone, P. acnes NCTC 737
# [17] = copper salt alone, S. aureus ATCC 29213
# [18] = copper salt + TBHQ on one disc, 200 μg of each (silicate 62 μg), unsupplemented
# [19] = copper salt + TBHQ vs larger zone of either compound alone, unsupplemented
# [20] = copper salt + TBHQ, salt and lipid (1% (v/v) Tween 80)
# [21] = copper salt + TBHQ, unsupplemented
# [22] = copper salt + TBHQ, salt and serum supplements
smiles,measurement,setting,value
CC(C)(C)C1=CC(=O)C=CC1=O,SL SDDA area increase,[1]; [9],56.24%
same,SL SDDA increase,[1]; [9],11.28 mm
same,SL SDDA with CSL,[1]; [9],56.41 (±2.58) mm
same,SDDA area increase,"[1]; quinone + CSL, unsupplemented",63.59%
same,SDDA increase,"[1]; quinone + CSL, unsupplemented",11.39 mm
same,SL SDDA area increase,[1]; [10],10.60%
same,SL SDDA increase,[1]; [10],2.56 mm
same,SL SDDA with CSPH,[1]; [10],52.10 (±2.56) mm
same,SDDA area increase,"[1]; quinone + CSPH, unsupplemented",61.51%
same,SDDA increase,"[1]; quinone + CSPH, unsupplemented",11.39 mm
same,DDA + salt & lipid,[2]; [11],45.13 (±1.45) mm
"O=C1C=CC(=O)C(Cl)=C1 [2-chloro-1,4-benzoquinone]",SDDA with CSL,[1],45.85 (±0.31) mm
same,SDDA with CSPH,[1],47.28 (±1.39) mm
same,SL SDDA area increase,[1]; [9],31.58%
same,SL SDDA increase,[1]; [9],6.26 mm
same,SL SDDA with CSL,[1]; [9],48.82 (±0.47) mm
same,SDDA area increase,"[1]; quinone + CSL, unsupplemented",26.16%
same,SDDA increase,"[1]; quinone + CSL, unsupplemented",5.03 mm
same,SL SDDA area increase,[1]; [10],3.75%
same,SL SDDA increase,[1]; [10],0.92 mm
same,SL SDDA with CSPH,[1]; [10],50.46 (±2.15) mm
same,SDDA area increase,"[1]; quinone + CSPH, unsupplemented",26.42%
same,SDDA increase,"[1]; quinone + CSPH, unsupplemented",5.23 mm
same,DDA,[2],22.15 (±0.53) mm
same,DDA + salt & lipid,[2]; [11],24.31 (±0.81) mm
CCc1cc(O)ccc1O [2-ethyl-p-hydroquinone],DDA + salt & serum,[3]; [12],25.26 (±1.29) mm
same,SL SDDA area increase,[1]; [9],31.58%
same,SL SDDA increase,[1]; [9],6.26 mm
same,SL SDDA with CSL,[1]; [9],48.82 (±0.47) mm
same,SDDA area increase,"[1]; quinone + CSL, unsupplemented",33.02%
same,SDDA increase,"[1]; quinone + CSL, unsupplemented",6.26 mm
same,SL SDDA area increase,[1]; [10],11.07%
same,SL SDDA increase,[1]; [10],2.67 mm
same,SL SDDA with CSPH,[1]; [10],52.21 (±0.18) mm
same,SDDA area increase,"[1]; quinone + CSPH, unsupplemented",44.00%
same,SDDA increase,"[1]; quinone + CSPH, unsupplemented",8.41 mm
same,DDA + salt & lipid,[2]; [11],33.74 (±1.69) mm
same,SS SDDA area increase,[4]; [13],41.05%
same,SS SDDA increase,[4]; [13],4.74 mm
same,SS SDDA with CSL,[4]; [13],30.00 (±2.47) mm
same,SDDA area increase,"[4]; quinone + CSL, unsupplemented",151.18%
same,SDDA increase,"[4]; quinone + CSL, unsupplemented",14.23 mm
same,SS SDDA area increase,[4]; [14],68.40%
same,SS SDDA increase,[4]; [14],7.52 mm
same,SS SDDA with CSPH,[4]; [14],32.78 (±0.31) mm
same,SDDA area increase,"[4]; quinone + CSPH, unsupplemented",157.87%
same,SDDA increase,"[4]; quinone + CSPH, unsupplemented",14.74 mm
CC1=CC(=O)C=CC1=O [2-methyl-p-benzoquinone],SDDA with CSL,[1],49.64 (±0.99) mm
same,SDDA with CSPH,[1],49.54 (±0.81) mm
same,SL SDDA area increase,[1]; [9],37.19%
same,SL SDDA increase,[1]; [9],7.29 mm
same,SL SDDA with CSL,[1]; [9],49.85 (±3.20) mm
same,SDDA area increase,"[1]; quinone + CSL, unsupplemented",47.88%
same,SDDA increase,"[1]; quinone + CSL, unsupplemented",8.82 mm
same,SL SDDA area increase,[1]; [10],18.59%
same,SL SDDA increase,[1]; [10],4.41 mm
same,SL SDDA with CSPH,[1]; [10],53.95 (±1.16) mm
same,SDDA area increase,"[1]; quinone + CSPH, unsupplemented",38.80%
same,SDDA increase,"[1]; quinone + CSPH, unsupplemented",7.49 mm
same,DDA,[2],33.74 (±1.52) mm
same,DDA + salt & lipid,[2]; [11],35.18 (±1.24) mm
Cc1cc(O)ccc1O [2-methyl-p-hydroquinone],DDA + salt & serum,[3]; [12],26.91 (±0.00) mm
same,SL SDDA area increase,[1]; [9],35.49%
same,SL SDDA increase,[1]; [9],6.98 mm
same,SL SDDA with CSL,[1]; [9],49.54 (±0.81) mm
same,SDDA area increase,"[1]; quinone + CSL, unsupplemented",24.46%
same,SDDA increase,"[1]; quinone + CSL, unsupplemented",4.72 mm
same,SL SDDA area increase,[1]; [10],17.67%
same,SL SDDA increase,[1]; [10],4.20 mm
same,SL SDDA with CSPH,[1]; [10],53.74 (±1.75) mm
same,SDDA area increase,"[1]; quinone + CSPH, unsupplemented",24.24%
same,SDDA increase,"[1]; quinone + CSPH, unsupplemented",4.82 mm
same,DDA + salt & lipid,[2]; [11],35.18 (±4.06) mm
same,SS SDDA area increase,[4]; [13],90.18%
same,SS SDDA increase,[4]; [13],10.20 mm
same,SS SDDA with CSL,[4]; [13],37.11 (±1.11) mm
same,SDDA area increase,"[4]; quinone + CSL, unsupplemented",112.09%
same,SDDA increase,"[4]; quinone + CSL, unsupplemented",11.76 mm
same,SS SDDA area increase,[4]; [14],74.72%
same,SS SDDA increase,[4]; [14],8.66 mm
same,SS SDDA with CSPH,[4]; [14],35.57 (±0.62) mm
same,SDDA area increase,"[4]; quinone + CSPH, unsupplemented",140.93%
same,SDDA increase,"[4]; quinone + CSPH, unsupplemented",14.23 mm
CC(=O)[O-].[Cu+] [Copper (I) acetate],DDA,[3],0 mm
same,DDA + lipid,[3],0 mm
same,DDA + salt,[3],0 mm
same,DDA + salt & serum,[3],0 mm
same,MBC,[5],31.25 µg/mL
same,MBC,[6],>250 µg/mL
same,SDDA area increase,[1],84.62%
same,SDDA increase,[1],18.67 mm
same,SDDA with TBHQ,[1],70.71 mm
same,SL SDDA area increase,[1],59.77%
same,SL SDDA increase,[1],13.77 mm
same,SL SDDA with TBHQ,[1],65.91 mm
same,MIC,[7],>250 µg/mL
same,MIC,[8],7.8 µg/mL
same,MIC/MBC ratio,[8],0.25
same,DDA,[2],52.04 mm
same,DDA + lipid,[2],45.46 mm
same,DDA + salt,[2],49.48 mm
same,DDA + salt & lipid,[2],52.15 mm
same,SDDA area increase,[4],16.25%
same,SDDA increase,[4],3.16 mm
same,SDDA with TBHQ,[4],43.58 mm
same,SS SDDA area increase,[4],−51.82%
same,SS SDDA increase,[4],−13.36 mm
same,SS SDDA with TBHQ,[4],30.32 mm
[Cu][Br] [Copper (I) bromide],DDA + lipid,"[3]; copper salt alone, 200 μg per disc (silicate 62 μg), Tween 80 at 1% v/v",0 mm
same,DDA + salt & serum,"[3]; copper salt alone, 200 μg per disc (silicate 62 μg), salt and horse serum (5% v/v)",0 mm
same,DDA + salt,[3]; [15],0 mm
same,MBC,[5]; [16],125 µg/mL
same,MBC,[6]; [17],>250 µg/mL
same,SL SDDA with TBHQ,"[1]; copper salt + TBHQ on one disc, 200 μg of each (silicate 62 μg), salt and lipid (1% (v/v) Tween 80)",56.01 mm
same,SDDA with TBHQ,[1]; [18],54.65 mm
same,SDDA increase,[1]; [19],15.44 mm
same,SL SDDA area increase,[1]; [20],64.26%
same,SL SDDA increase,[1]; [20],12.31 mm
same,SDDA area increase,[1]; [21],94.26%
same,MIC,[7]; [17],>250 µg/mL
same,MIC,[8]; [16],15.6 µg/mL
same,MIC/MBC ratio,[8]; [16],0.125
same,DDA + lipid,"[2]; copper salt alone, 200 μg per disc (silicate 62 μg), 1% (v/v) Tween 80",43.92 mm
same,DDA + salt & lipid,"[2]; copper salt alone, 200 μg per disc (silicate 62 μg), salt and 1% (v/v) Tween 80",43.70 mm
same,DDA + salt,[2]; [15],29.38 mm
same,SS SDDA with TBHQ,"[4]; copper salt + TBHQ on one disc, 200 μg of each (silicate 62 μg), salt and serum supplements",46.42 mm
same,SDDA with TBHQ,[4]; [18],55.37 mm
same,SDDA increase,[4]; [19],14.95 mm
same,SS SDDA area increase,[4]; [22],12.94%
same,SS SDDA increase,[4]; [22],2.74 mm
same,SDDA area increase,[4]; [21],87.65%
"O=S(=O)([O-])[O-].[Cu+2] [Copper (II) sulphate, copper (II) sulphate]",(S)DDA,[3],0 mm
same,SS (S)DDA,[3],0 mm
same,activity of copper salt alone (in words),[3],inactive
same,MBC,[5],31.25 µg/mL
same,MBC,[6],1000 µg/mL
same,MIC,[7],1000 μml
same,MIC/MBC ratio,[7],1
same,MIC,[8],15.6 µg/mL
same,MIC/MBC ratio,[8],0.5
same,(S)DDA,[2],51.73 (±1.48) mm
same,SL (S)DDA,[2],51.10 (±3.17) mm
